# Measurements published in patent US6555134B1, “Synergistic mixtures of garlic and lycopene for preventing LDL oxidation” (Lycored Natural Products Industries Ltd., priority 1998, dated 2003).
# Where two headings read alike, the source gives them in different places. Marks after values point to notes of the source that are not given here.
# Tests used:
# [1] = test system: LDL; assay: copper ions-induced LDL oxidation (TBARS, lipids); format: biochemical, human; conditions: Experiment 1; lycopene 5 μg/ml
# Procedure: LDL was separated from human plasma by discontinuous density gradient ultracentrifugation and dialyzed against saline: EDTA (1 mM). Before oxidation LDL was diluted in PBS to 100 ug protein/ml, and dialyzed overnight against PBS at 4° C. LDL was oxidized by a metal ion dependent mechanism, by incubation for 24 hours at 37° C. with 5 uM CuSO4 freshly prepared as well as by determination of the thiobarbituric acid reactive substance (TBARS). Lycopene, as well as tomato oleoresin containing 5% lycopene, were dissolved in tetrahydrofuran (THF), 0.5 mg/ml stock solution for pure lycopene, and 10 mg/ml stock solution for the oleoresin. Garlic powder was extracted with water, dried, and resolubilized in water at a concentration of 0.25 mg of allicin equivalentsml for a stock solution. The synergistic effects of a combination of garlic and lycopene on copper ions-induced LDL oxidation was studied. Details are shown in Table 1, affording the individual components of the Abbott Equation used to calculate synergism as follows: [formula] where A=Percent Control of garlic alone B=Percent Control of Lycopene alone where IF=Actual control in Percent IE=Expected control in Percent Following the method of Experiment 1, the synergistic effect of a combination of garlic and lycopene as in Experiment 1; but using tomato oleoresin was run.
# [2] = test system: blood lymphocytes; conditions: NO2 radical damage; cited from earlier work
# [3] = test system: Cultured rat hepatocytes; conditions: cited from earlier work
# [4] = biological target: T1, fatty acid synthetase (Rattus norvegicus, UniProt P12785); conditions: at very high concentration; cited from earlier work
# T1 construct: Cultured rat hepatocytes; host or cells: primary rat hepatocyte cultures
# T1 sequence (P12785 whole entry): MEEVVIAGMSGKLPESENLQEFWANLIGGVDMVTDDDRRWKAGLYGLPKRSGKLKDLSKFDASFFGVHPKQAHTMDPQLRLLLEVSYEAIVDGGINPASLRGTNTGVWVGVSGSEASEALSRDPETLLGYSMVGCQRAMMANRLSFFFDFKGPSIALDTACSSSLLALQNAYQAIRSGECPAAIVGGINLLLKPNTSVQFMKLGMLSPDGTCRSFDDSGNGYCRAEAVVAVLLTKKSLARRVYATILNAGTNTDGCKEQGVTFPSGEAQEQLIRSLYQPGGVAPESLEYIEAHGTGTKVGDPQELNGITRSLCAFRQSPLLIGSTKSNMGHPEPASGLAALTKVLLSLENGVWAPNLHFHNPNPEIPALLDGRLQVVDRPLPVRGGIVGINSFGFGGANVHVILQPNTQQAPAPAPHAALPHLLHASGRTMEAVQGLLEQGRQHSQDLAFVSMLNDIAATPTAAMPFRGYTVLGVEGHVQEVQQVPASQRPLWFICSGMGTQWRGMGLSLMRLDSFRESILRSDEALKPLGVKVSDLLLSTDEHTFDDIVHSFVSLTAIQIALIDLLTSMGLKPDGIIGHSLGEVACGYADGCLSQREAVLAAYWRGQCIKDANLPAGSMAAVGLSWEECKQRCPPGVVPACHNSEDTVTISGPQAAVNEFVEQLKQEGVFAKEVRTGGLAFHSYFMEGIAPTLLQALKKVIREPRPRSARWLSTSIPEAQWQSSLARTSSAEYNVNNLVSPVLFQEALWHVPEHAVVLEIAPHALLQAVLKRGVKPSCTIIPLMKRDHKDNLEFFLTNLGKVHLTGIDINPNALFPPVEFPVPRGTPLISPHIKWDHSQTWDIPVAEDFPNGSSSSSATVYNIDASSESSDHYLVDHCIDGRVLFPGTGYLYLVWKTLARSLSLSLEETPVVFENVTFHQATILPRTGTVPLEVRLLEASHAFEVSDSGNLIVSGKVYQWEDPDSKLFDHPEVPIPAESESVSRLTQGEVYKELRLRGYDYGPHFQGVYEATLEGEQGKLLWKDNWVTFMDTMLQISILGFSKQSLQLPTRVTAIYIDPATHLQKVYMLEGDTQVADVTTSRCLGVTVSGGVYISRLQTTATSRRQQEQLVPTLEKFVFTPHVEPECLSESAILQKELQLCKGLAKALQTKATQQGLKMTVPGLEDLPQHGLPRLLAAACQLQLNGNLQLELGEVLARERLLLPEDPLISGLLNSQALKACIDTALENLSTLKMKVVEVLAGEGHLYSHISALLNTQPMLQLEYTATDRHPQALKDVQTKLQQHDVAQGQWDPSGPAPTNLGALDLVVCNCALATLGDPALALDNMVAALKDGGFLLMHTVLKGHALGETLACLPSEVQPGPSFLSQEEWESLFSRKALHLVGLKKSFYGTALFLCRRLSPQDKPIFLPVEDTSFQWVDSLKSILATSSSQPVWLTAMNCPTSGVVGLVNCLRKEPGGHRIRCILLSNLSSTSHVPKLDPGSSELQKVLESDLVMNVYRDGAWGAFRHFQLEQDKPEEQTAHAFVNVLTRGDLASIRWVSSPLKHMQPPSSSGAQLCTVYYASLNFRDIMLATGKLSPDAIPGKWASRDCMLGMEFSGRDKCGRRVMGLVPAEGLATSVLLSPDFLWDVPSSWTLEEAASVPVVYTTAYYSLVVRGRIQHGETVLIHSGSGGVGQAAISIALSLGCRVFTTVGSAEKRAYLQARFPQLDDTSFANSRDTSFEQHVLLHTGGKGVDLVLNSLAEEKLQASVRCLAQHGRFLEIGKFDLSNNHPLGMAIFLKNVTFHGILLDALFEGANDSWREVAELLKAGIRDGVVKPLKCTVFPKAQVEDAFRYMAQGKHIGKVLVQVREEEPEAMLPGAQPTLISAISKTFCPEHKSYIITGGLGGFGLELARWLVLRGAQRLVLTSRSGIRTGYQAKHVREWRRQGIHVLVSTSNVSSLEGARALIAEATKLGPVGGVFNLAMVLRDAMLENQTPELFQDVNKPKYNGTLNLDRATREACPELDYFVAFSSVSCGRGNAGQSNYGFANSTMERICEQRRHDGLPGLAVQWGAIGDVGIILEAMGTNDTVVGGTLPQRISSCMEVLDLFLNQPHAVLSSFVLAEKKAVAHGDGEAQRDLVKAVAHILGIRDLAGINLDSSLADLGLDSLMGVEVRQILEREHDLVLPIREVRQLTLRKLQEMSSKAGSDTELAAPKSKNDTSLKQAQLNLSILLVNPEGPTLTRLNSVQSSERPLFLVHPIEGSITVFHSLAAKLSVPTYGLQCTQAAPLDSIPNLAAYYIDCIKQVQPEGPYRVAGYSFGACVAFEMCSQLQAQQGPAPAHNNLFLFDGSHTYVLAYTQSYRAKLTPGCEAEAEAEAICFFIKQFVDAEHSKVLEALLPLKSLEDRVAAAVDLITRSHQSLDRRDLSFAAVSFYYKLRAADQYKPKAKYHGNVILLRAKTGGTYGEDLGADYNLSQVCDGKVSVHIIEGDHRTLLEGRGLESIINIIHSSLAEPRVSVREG
smiles,measurement,setting,value
CC(C)=CCC/C(C)=C/C=C/C(C)=C/C=C/C(C)=C/C=C/C=C(C)/C=C/C=C(C)/C=C/C=C(\C)CCC=C(C)C [Lycopene],B = Percent Control of Lycopene alone,[1],18^b Percent
same,antioxidant effectiveness relative to β-carotene,[2],at least twice as effective
CC[C@H](C)C(=O)O[C@H]1CCC=C2C=C[C@H](C)[C@H](CC[C@@H]3C[C@@H](O)CC(=O)O3)[C@H]21 [Mevastatin],inhibition of cholesterol biosynthesis,"[3]; 24 h incubation, radiolabeled acetate",90%
C=CCS[S+]([O-])CC=C (centres unmarked) [allicin],inhibition of fatty acid synthetase,[4],inhibited
same,inhibition of cholesterol biosynthesis,"[3]; concentration corresponding to its content in the extracts, before or after incubation with alliinase",does not exert any inhibition
